Assay results from the NIST ThermoML archive (doi:10.1016/j.jct.2008.07.010).
Values joined by “and” are separate entries in the source; they are usually repeats but may differ in a detail not shown here. Equal entries are not always repeated. Numbers after ± are expanded uncertainties.

Experiments:
[1] = 101 kPa, Liquid; for viscosity: Capillary tube (Ostwald / Ubbelohde) method; for speed of sound: Sing-around technique in a fixed-path interferometer; for mass density: Vibrating tube method
[2] = xn = mol fraction of the nth substance listed; details: 101 kPa, Liquid, x1 = 1; for viscosity: Capillary tube (Ostwald / Ubbelohde) method; for speed of sound: Sing-around technique in a fixed-path interferometer; for mass density: Vibrating tube method

Row | viscosity ([1]; 298.15 K) [mPa·s] | speed of sound ([1]; 298.15 K) | mass density ([1]; 298.15 K) [kg/m3] | viscosity ([1]; 303.15 K) [mPa·s] | speed of sound ([1]; 303.15 K) [m/s] | mass density ([1]; 303.15 K) [kg/m3] | viscosity ([1]; 308.15 K) [mPa·s] | speed of sound ([1]; 308.15 K) [m/s] | mass density ([1]; 308.15 K) [kg/m3] | SMILES | viscosity ([2]; 298.15 K) [mPa·s] | speed of sound ([2]; 298.15 K) [m/s] | mass density ([2]; 298.15 K) [kg/m3] | viscosity ([2]; 303.15 K) [mPa·s] | speed of sound ([2]; 303.15 K) [m/s] | mass density ([2]; 303.15 K) [kg/m3] | viscosity ([2]; 308.15 K) [mPa·s] | speed of sound ([2]; 308.15 K) [m/s] | mass density ([2]; 308.15 K) [kg/m3]
1 | 28.26 ± 0.31 | 1381.9 ± 1.3 m/s | 805.122 ± 0.24 | 22.09 ± 0.26 | 1364.1 ± 1.3 | 801.912 ± 0.24 | 17.77 ± 0.21 | 1346.5 ± 1.3 | 798.709 ± 0.24 | CC(C)CCCC(C)CCCC(C)CCCCC(C)CCCC(C)CCCC(C)C (stereo not given) [2,6,10,15,19,23-hexamethyltetracosane] |  |  |  |  |  |  |  |  | 
2 | 3.041 ± 0.026 | 1338.6 ± 1.3 m/s | 770.456 ± 0.24 | 2.706 ± 0.024 | 1320 ± 1.3 | 766.981 ± 0.24 | 2.409 ± 0.022 | 1301.7 ± 1.3 | 763.52 ± 0.24 | CCCCCCCCCCCCCCCC [hexadecane] |  |  |  |  |  |  |  |  | 
3 |  |  |  |  |  |  |  |  |  | CC(C)O [propan-2-ol] + CC(C)CCCC(C)CCCC(C)CCCCC(C)CCCC(C)CCCC(C)C | 2.061 ± 0.018 | 1139.3 ± 0.9 | 781.152 ± 0.15 | 1.758 ± 0.015 | 1122 ± 0.8 | 776.87 ± 0.15 | 1.573 ± 0.013 | 1104.5 ± 0.8 | 772.511 ± 0.15
4 |  |  |  |  |  |  |  |  |  | CC(C)O [propan-2-ol] + CCCCCCCCCCCCCCCC | 2.061 ± 0.018 | 1139.3 ± 0.85 | 781.152 ± 0.15 | 1.758 ± 0.015 | 1122 ± 0.8 | 776.87 ± 0.15 | 1.573 ± 0.013 | 1104.5 ± 0.8 | 772.511 ± 0.15

Row | SMILES | viscosity ([1]; 298.15 K) [mPa·s] | speed of sound ([1]; 298.15 K) | mass density ([1]; 298.15 K) [kg/m3] | viscosity ([1]; 303.15 K) [mPa·s] | speed of sound ([1]; 303.15 K) [m/s] | mass density ([1]; 303.15 K) [kg/m3] | viscosity ([1]; 308.15 K) [mPa·s] | speed of sound ([1]; 308.15 K) [m/s] | mass density ([1]; 308.15 K) [kg/m3] | viscosity ([2]; 298.15 K) [mPa·s] | speed of sound ([2]; 298.15 K) [m/s] | mass density ([2]; 298.15 K) [kg/m3] | viscosity ([2]; 303.15 K) [mPa·s] | speed of sound ([2]; 303.15 K) [m/s] | mass density ([2]; 303.15 K) [kg/m3] | viscosity ([2]; 308.15 K) [mPa·s] | speed of sound ([2]; 308.15 K) [m/s] | mass density ([2]; 308.15 K) [kg/m3]
5 | CC(C)O [propan-2-ol] | 2.061 ± 0.018 | 1139.3 ± 0.85 m/s and 1139.3 ± 0.9 m/s | 781.152 ± 0.15 | 1.758 ± 0.015 | 1122 ± 0.8 | 776.87 ± 0.15 | 1.573 ± 0.013 | 1104.5 ± 0.8 | 772.511 ± 0.15 |  |  |  |  |  |  |  |  | 
